Measurements as given in the NIST ThermoML archive (doi:10.1021/je400184t).
Values joined by “and” are separate entries in the source; they are usually repeats but may differ in a detail not shown here. Identical values can stand only once. Numbers after ± are expanded uncertainties.

Legend:
[1] = 101 kPa, Liquid, Vibrating tube method
[2] = xn = mol fraction of the nth substance listed; conditions: 101 kPa, Liquid, Vibrating tube method, x1 = 1

## NCCO [2-aminoethan-1-ol]
[1]; 288.15 K
  mass density: 1019.87 ± 0.2 kg/m3
[1]; 298.15 K
  mass density: 1012.12 ± 0.2 kg/m3
[1]; 353.15 K
  mass density: 968.332 ± 0.2 kg/m3

## CN(CCO)CCO [N-methyldiethanolamine]
[1]; 288.15 K
  mass density: 1046.36 ± 0.21 kg/m3
[1]; 298.15 K
  mass density: 1036.81 ± 0.21 kg/m3
[1]; 353.15 K
  mass density: 994.015 ± 0.2 kg/m3

## CCCCCCC [heptane]
[1]; 298.15 K
  mass density: 679.537 ± 0.26 kg/m3

## CCCCCCC [heptane] + Cc1ccccc1
[2]; 298.15 K
  mass density: 679.537 ± 0.26 kg/m3

## c1ccncc1 [pyridine]
[1]; 288.15 K
  mass density: 988.041 ± 0.2 kg/m3 and 988.343 ± 0.2 kg/m3
[1]; 298.15 K
  mass density: 978.145 ± 0.2 kg/m3 and 978.086 ± 0.2 kg/m3
[1]; 353.15 K
  mass density: 921.953 ± 0.21 kg/m3 and 921.952 ± 0.21 kg/m3

## c1ccncc1 [pyridine] + CN(CCO)CCO
[2]; 288.15 K
  mass density: 988.343 ± 0.2 kg/m3
[2]; 298.15 K
  mass density: 978.086 ± 0.2 kg/m3
[2]; 353.15 K
  mass density: 921.952 ± 0.21 kg/m3

## c1ccncc1 [pyridine] + NCCO
[2]; 288.15 K
  mass density: 988.041 ± 0.2 kg/m3
[2]; 298.15 K
  mass density: 978.145 ± 0.2 kg/m3
[2]; 353.15 K
  mass density: 921.953 ± 0.21 kg/m3

## Cc1ccccc1 [toluene]
[1]; 298.15 K
  mass density: 862.222 ± 0.21 kg/m3
